Data reported in US12209087B2, “AKT1 modulators” (Alterome Therapeutics, Inc., priority 2022, dated 2025).

Biological target: T1, full length AKT E17K (Homo sapiens, UniProt P31749, E17K)
T1 construct: host or cells: HEK-293 (ATCC CRL-1573)
Test: NanoBRET Target Engagement (TE) Assay
Format: cell-based
Conditions: competitive tracer displacement in living cells, read-out: AKT1 E17K IC50
Summary of the method: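 Compound and tracer incubated 2 h before luminescence at donor 450 nm and acceptor 600 nm, with extracellular signal inhibited. EC50 by sigmoidal variable-slope regression.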

T1 sequence (P31749 whole entry E17K): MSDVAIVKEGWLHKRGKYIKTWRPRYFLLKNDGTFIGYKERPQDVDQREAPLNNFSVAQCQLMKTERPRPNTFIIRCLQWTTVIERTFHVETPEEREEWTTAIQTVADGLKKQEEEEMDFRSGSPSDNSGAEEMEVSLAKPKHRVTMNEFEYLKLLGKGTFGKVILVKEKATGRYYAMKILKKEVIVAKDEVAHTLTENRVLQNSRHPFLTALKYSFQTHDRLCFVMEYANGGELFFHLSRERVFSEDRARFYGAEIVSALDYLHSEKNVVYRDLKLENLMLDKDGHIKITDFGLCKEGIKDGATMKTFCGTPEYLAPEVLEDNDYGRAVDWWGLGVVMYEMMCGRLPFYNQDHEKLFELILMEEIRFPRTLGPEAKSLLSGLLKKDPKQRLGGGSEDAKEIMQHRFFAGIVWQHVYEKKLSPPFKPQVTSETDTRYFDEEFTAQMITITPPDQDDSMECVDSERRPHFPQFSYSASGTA

Compound	IC50 [µM]
N#Cc1cccc(NC2CCN(Cc3ccc(-n4c(-c5cccnc5N)nc5ccc(-c6ccccc6)nc54)cc3)CC2)n1 [Example 86, 6-((1-(4-(2-(2-Aminopyridin-3-yl)-5-phenyl-3H-imidazo[4,5-b]pyridin-3-yl)benzyl)piperidin-4-yl)amino)picolinonitrile]	0.06 to 0.6
N#Cc1cncc(NC2CCN(Cc3ccc(-n4c(-c5cccnc5N)nc5ccc(-c6ccccc6)nc54)cc3)CC2)n1 [Example 89, 6-((1-(4-(2-(2-Aminopyridin-3-yl)-5-phenyl-3H-imidazo[4,5-b]pyridin-3-yl)benzyl)piperidin-4-yl)amino)pyrazine-2-carbonitrile]	< 0.015
N#Cc1nccc(NC2CCN(Cc3ccc(-n4c(-c5cccnc5N)nc5cccnc54)cc3)CC2)n1 [Example 92, 4-((1-(4-(2-(2-Aminopyridin-3-yl)-3H-imidazo[4,5-b]pyridin-3-yl)benzyl)piperidin-4-yl)amino)pyrimidine-2-carbonitrile]	0.015 to 0.06
N#Cc1ccc(N2CCN(Cc3ccc(-n4c(-c5cccnc5N)nc5ccc(-c6ccccc6)nc54)cc3)CC2)cn1 [Example 94, 5-(4-(4-(2-(2-Aminopyridin-3-yl)-5-phenyl-3H-imidazo[4,5-b]pyridin-3-yl)benzyl)piperazin-1-yl)picolinonitrile]	0.06 to 0.6
N#Cc1ncc(NCc2ccc(-n3c(-c4cccnc4N)nc4cccnc43)cc2)cn1 [Example 95, 5-((4-(2-(2-Aminopyridin-3-yl)-3H-imidazo[4,5-b]pyridin-3-yl)benzyl)amino)pyrimidine-2-carbonitrile]	0.6 to 10
N#Cc1ncc(N2CCN(Cc3ccc(-n4c(-c5cccnc5N)nc5ccc(-c6ccccc6)nc54)cc3)CC2)cn1 [Example 97, 5-(4-(4-(2-(2-aminopyridin-3-yl)-5-phenyl-3H-imidazo[4,5-b]pyridin-3-yl)benzyl)piperazin-1-yl)pyrimidine-2-carbonitrile]	0.015 to 0.06
N#Cc1ncccc1C(=O)NCc1ccc(-n2c(-c3cccnc3N)nc3cccnc32)cc1 [Example 98, N-(4-(2-(2-Aminopyridin-3-yl)-3H-imidazo[4,5-b]pyridin-3-yl)benzyl)-2-cyanonicotinamide]	0.6 to 10
N#Cc1ccc(C(=O)N2CCN(Cc3ccc(-n4c(-c5cccnc5N)nc5cccnc54)cc3)CC2)cn1 [Example 102, 5-(4-(4-(2-(2-Aminopyridin-3-yl)-3H-imidazo[4,5-b]pyridin-3-yl)benzyl)piperazine-1-carbonyl)picolinonitrile]	0.6 to 10
N#Cc1ccc(C(=O)NCc2ccc(-n3c(-c4cccnc4N)nc4cc(-c5ccccc5)cnc43)cc2)cn1 [Example 106, N-(4-(2-(2-Aminopyridin-3-yl)-6-phenyl-3H-imidazo[4,5-b]pyridin-3-yl)benzyl)-6-cyanonicotinamide]	0.6 to 10
N#Cc1cccc(C(=O)NCc2ccc(-n3c(-c4cccnc4N)nc4cccnc43)cc2)n1 [Example 108, N-(4-(2-(2-Aminopyridin-3-yl)-3H-imidazo[4,5-b]pyridin-3-yl)benzyl)-6-cyanopicolinamide]	0.6 to 10
N#Cc1cccnc1C(=O)N1CCN(Cc2ccc(-n3c(-c4cccnc4N)nc4cccnc43)cc2)CC1 [Example 110, 2-(4-(4-(2-(2-Aminopyridin-3-yl)-3H-imidazo[4,5-b]pyridin-3-yl)benzyl)piperazine-1-carbonyl)nicotinonitrile]	0.6 to 10
N#Cc1ccc(C(=O)N2CCN(Cc3ccc(-n4c(-c5cccnc5N)nc5cc(-c6ccccc6)cnc54)cc3)CC2)cn1 [Example 111, 5-(4-(4-(2-(2-Aminopyridin-3-yl)-6-phenyl-3H-imidazo[4,5-b]pyridin-3-yl)benzyl)piperazine-1-carbonyl)picolinonitrile]	0.6 to 10
N#Cc1cc(C(=O)NCc2ccc(-n3c(-c4cccnc4N)nc4cccnc43)cc2)ncn1 [Example 113, N-(4-(2-(2-Aminopyridin-3-yl)-3H-imidazo[4,5-b]pyridin-3-yl)benzyl)-6-cyanopyrimidine-4-carboxamide]	0.6 to 10
N#Cc1cc(C(=O)N2CCN(Cc3ccc(-n4c(-c5cccnc5N)nc5ccc(-c6ccccc6)nc54)cc3)CC2)ncn1 [Example 116, 6-(4-(4-(2-(2-Aminopyridin-3-yl)-5-phenyl-3H-imidazo[4,5-b]pyridin-3-yl)benzyl)piperazine-1-carbonyl)pyrimidine-4-carbonitrile]	< 0.015
N#Cc1cc(C(=O)NC2CCN(Cc3ccc(-n4c(-c5cccnc5N)nc5ccc(-c6ccccc6)nc54)cc3)CC2)ncn1 [Example 117, N-(1-(4-(2-(2-aminopyridin-3-yl)-5-phenyl-3H-imidazo[4,5-b]pyridin-3-yl)benzyl)piperidin-4-yl)-6-cyanopyrimidine-4-carboxamide]	0.015 to 0.06

Second part, the molecule after the results:

IC50 [µM]	Compound
0.06 to 0.6	N#Cc1cccc(N2CCN(Cc3ccc(-n4c(-c5cccnc5N)nc5ccc(-c6ccccc6)nc54)cc3)CC2)n1 [Example 83, 6-(4-(4-(2-(2-Aminopyridin-3-yl)-5-phenyl-3H-imidazo[4,5-b]pyridin-3-yl)benzyl)piperazin-1-yl)picolinonitrile]
0.015 to 0.06	N#Cc1ccc(NC2CCN(Cc3ccc(-n4c(-c5cccnc5N)nc5ccc(-c6ccccc6)nc54)cc3)CC2)cn1 [Example 84, 5-((1-(4-(2-(2-Aminopyridin-3-yl)-5-phenyl-3H-imidazo[4,5-b]pyridin-3-yl)benzyl)piperidin-4-yl)amino)picolinonitrile]
< 0.015	N#Cc1cc(NC2CCN(Cc3ccc(-n4c(-c5cccnc5N)nc5ccc(-c6ccccc6)nc54)cc3)CC2)ccn1 [Example 85, 4-((1-(4-(2-(2-Aminopyridin-3-yl)-5-phenyl-3H-imidazo[4,5-b]pyridin-3-yl)benzyl)piperidin-4-yl)amino)picolinonitrile]
0.06 to 0.6	N#Cc1ccnc(NC2CCN(Cc3ccc(-n4c(-c5cccnc5N)nc5ccc(-c6ccccc6)nc54)cc3)CC2)c1 [Example 87, 2-((1-(4-(2-(2-Aminopyridin-3-yl)-5-phenyl-3H-imidazo[4,5-b]pyridin-3-yl)benzyl)piperidin-4-yl)amino)isonicotinonitrile]
< 0.015	N#Cc1nccc(NC2CCN(Cc3ccc(-n4c(-c5cccnc5N)nc5ccc(-c6ccccc6)nc54)cc3)CC2)n1 [Example 88, 4-((1-(4-(2-(2-Aminopyridin-3-yl)-5-phenyl-3H-imidazo[4,5-b]pyridin-3-yl)benzyl)piperidin-4-yl)amino)pyrimidine-2-carbonitrile]
< 0.015	N#Cc1ccnc(NC2CCN(Cc3ccc(-n4c(-c5cccnc5N)nc5ccc(-c6ccccc6)nc54)cc3)CC2)n1 [Example 90, 2-((1-(4-(2-(2-Aminopyridin-3-yl)-5-phenyl-3H-imidazo[4,5-b]pyridin-3-yl)benzyl)piperidin-4-yl)amino)pyrimidine-4-carbonitrile]
< 0.015	N#Cc1cc(NC2CCN(Cc3ccc(-n4c(-c5cccnc5N)nc5ccc(-c6ccccc6)nc54)cc3)CC2)ncn1 [Example 91, 6-((1-(4-(2-(2-Aminopyridin-3-yl)-5-phenyl-3H-imidazo[4,5-b]pyridin-3-yl)benzyl)piperidin-4-yl)amino)pyrimidine-4-carbonitrile]
0.06 to 0.6	N#Cc1cncc(NC2CCN(Cc3ccc(-n4c(-c5cccnc5N)nc5ccc(-c6ccccc6)nc54)cc3)CC2)c1 [Example 93, 5-((1-(4-(2-(2-Aminopyridin-3-yl)-5-phenyl-3H-imidazo[4,5-b]pyridin-3-yl)benzyl)piperidin-4-yl)amino)nicotinonitrile]
0.6 to 10	N#Cc1cnccc1C(=O)NCc1ccc(-n2c(-c3cccnc3N)nc3cccnc32)cc1 [Example 99, N-(4-(2-(2-Aminopyridin-3-yl)-3H-imidazo[4,5-b]pyridin-3-yl)benzyl)-3-cyanoisonicotinamide]
0.6 to 10	N#Cc1ccncc1C(=O)NCc1ccc(-n2c(-c3cccnc3N)nc3cccnc32)cc1 [Example 100, N-(4-(2-(2-Aminopyridin-3-yl)-3H-imidazo[4,5-b]pyridin-3-yl)benzyl)-4-cyanonicotinamide]
0.6 to 10	N#Cc1cccnc1C(=O)NCc1ccc(-n2c(-c3cccnc3N)nc3cccnc32)cc1 [Example 101, N-(4-(2-(2-Aminopyridin-3-yl)-3H-imidazo[4,5-b]pyridin-3-yl)benzyl)-3-cyanopicolinamide]
0.6 to 10	N#Cc1cc(C(=O)NC2CCN(Cc3ccc(-n4c(-c5cccnc5N)nc5cc(-c6ccccc6)cnc54)cc3)CC2)ccn1 [Example 107, N-(1-(4-(2-(2-Aminopyridin-3-yl)-6-phenyl-3H-imidazo[4,5-b]pyridin-3-yl)benzyl)piperidin-4-yl)-2-cyanoisonicotinamide]
0.6 to 10	N#Cc1cc(C(=O)N2CCN(Cc3ccc(-n4c(-c5cccnc5N)nc5cccnc54)cc3)CC2)ccn1 [Example 109, 4-(4-(4-(2-(2-Aminopyridin-3-yl)-3H-imidazo[4,5-b]pyridin-3-yl)benzyl)piperazine-1-carbonyl)picolinonitrile]
0.06 to 0.6	N#Cc1cc(C(=O)N2CCN(Cc3ccc(-n4c(-c5cccnc5N)nc5cccnc54)cc3)CC2)ncn1 [Example 114, 6-(4-(4-(2-(2-Aminopyridin-3-yl)-3H-imidazo[4,5-b]pyridin-3-yl)benzyl)piperazine-1-carbonyl)pyrimidine-4-carbonitrile]
0.6 to 10	N#Cc1ncc(C(=O)NCc2ccc(-n3c(-c4cccnc4N)nc4cccnc43)cc2)cn1 [Example 119, N-(4-(2-(2-Aminopyridin-3-yl)-3H-imidazo[4,5-b]pyridin-3-yl)benzyl)-2-cyanopyrimidine-5-carboxamide]
0.6 to 10	N#Cc1ccc(C(=O)NCc2ccc(-n3c(-c4cccnc4N)nc4cccnc43)cc2)cn1 [Example 121, N-(4-(2-(2-Aminopyridin-3-yl)-3H-imidazo[4,5-b]pyridin-3-yl)benzyl)-6-cyanonicotinamide]
0.6 to 10	N#Cc1cc(C(=O)NCc2ccc(-n3c(-c4cccnc4N)nc4cccnc43)cc2)ccn1 [Example 122, N-(4-(2-(2-Aminopyridin-3-yl)-3H-imidazo[4,5-b]pyridin-3-yl)benzyl)-2-cyanoisonicotinamide]
